For orientation: EC50 means the concentration at which the effect is half-maximal.

Changes are numbered by the printed parent chain. Ends that are not written are not given here.

Experiment [1] has as its target T1, GALR3 single mutant L^100F (Homo sapiens, UniProt O60755, L100F).
T1 construct: expressed in transfected cells; host or cells: HEK293 cells stably expressing Gqi
T1 sequence (O60755 1-368 L100F): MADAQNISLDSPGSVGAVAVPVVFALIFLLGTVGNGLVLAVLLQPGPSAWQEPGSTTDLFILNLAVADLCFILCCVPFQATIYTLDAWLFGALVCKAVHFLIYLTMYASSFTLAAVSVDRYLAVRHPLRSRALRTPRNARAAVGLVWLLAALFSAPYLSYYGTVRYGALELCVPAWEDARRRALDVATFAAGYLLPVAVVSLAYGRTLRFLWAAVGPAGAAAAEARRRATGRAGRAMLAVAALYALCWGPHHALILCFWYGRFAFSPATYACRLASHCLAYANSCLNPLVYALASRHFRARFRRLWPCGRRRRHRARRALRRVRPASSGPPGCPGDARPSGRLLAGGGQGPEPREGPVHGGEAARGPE
Description: SRE-luc luciferase assay, GALR3 L100F. It counts as cell-based. The note with it: GALR3 L^100F; SRE-luc in HEK293 Gqi cells, ligand 6 h; mean ± S.E.; SEM. The text has this: (§1) For domain swapping between GALR2 and GALR3, individual cDNA fragments of interest were amplified by polymerase chain reaction (PCR) with Pfu polymerase (ELPIS Biotech, Daejeon, Korea) and two specific primers, one corresponding to the 5' or 3' end of the GALR2 or GALR3 cDNA and the other to the region of overlap between the two receptors. The two resulting fragments, one from GALR2 and the other from GALR3, were subjected to a second round of PCR to generate the chimeric cDNAs. To construct single, double-, triple-, pentuple-, hextuple-, and septuple-mutant receptors, amino acids of GALR3 were substituted for the amino acids at the corresponding positions in GALR2 using PCR-based site-directed mutagenesis. All of the chimeric constructs were cloned into the pcDNA3 expression vector at HindⅢ and XbaⅠ sites. The DNA sequences of the chimeras were verified by automatic sequencing. HEK293 cells stably expressing the Gqi construct, which allows induction of Gq-dependent signaling pathways upon activation of a Gi-coupled receptor [14, 30], were maintained in Dulbecco's Modified Eagle's Medium (DMEM) in the presence of 10% fetal bovine serum and 1% penicillin and streptomycin. For all transfections, 200 ng DNA (100 ng receptor and 100 ng SRE-luc) mixed with lipofectamine 2000 was applied to 60–80% confluent cells on a multi-well plate according to the manufacturer's instructions (Invitrogen, Carlsbad, CA). For luciferase assays, HEK293 Gqi cells were seeded on 48-well plates at a density of 2.5 × 10^4 cells/well one day before transfection. […] The luciferase activity in 50 μl cell extract was determined using a luciferase assay system according to the standard protocol for the Synergy 2 Multi-Mode Microplate Reader (BioTek, Winooski, VT, USA). […] The concentrations of agonists that induced half-maximal stimulation (EC50) were calculated using the GraphPad PRISM5 software (GraphPad software, Inc., San Diego, CA). […]

In experiment [2] the target is T2, GALR3 single mutant Y^103F (Homo sapiens, UniProt O60755, Y103F).
T2 construct: expressed in transfected cells; host or cells: HEK293 cells stably expressing Gqi
T2 sequence (O60755 1-368 Y103F): T1 sequence (O60755 1-368 L100F) with F100L, Y103F
Description: SRE-luc luciferase assay, GALR3 Y103F. It is filed as cell-based. The note with it: GALR3 Y^103F; SRE-luc in HEK293 Gqi cells, ligand 6 h; mean ± S.E.; SEM.
Excerpt: as §1

For `CSCC[C@H](NC(=O)[C@H](C)NC(=O)[C@H](CCC(N)=O)NC(=O)[C@@H]1CCCN1C(=O)[C@@H](NC(=O)[C@H](Cc1c[nH]c2ccccc12)NC(=O)[C@@H](N)CC(N)=O)[C@@H](C)O)C(=O)N[C@@H](CC(C)C)C(=O)N[C@@H](Cc1ccc(O)cc1)C(=O)N[C@@H](CC(C)C)C(=O)N[C@@H](CCCCN)C(=O)NCC(=O)N[C@@H](C)C(=O)N[C@@H](CCC(N)=O)C(N)=O` [SPX, reference compound], the values for the EC50 in experiment [1] and in experiment [2] were 66.1 ± 13.6 nM and 32.4 ± 10.5 nM, respectively.
On the same counts, the results for NWTPNAMLYLKGAQ-NH2 [N^5-SPX] are 288 ± 84.2 nM and 676 ± 127 nM.
In the case of NWTPQAALYLKGAQ-NH2 [A^7-SPX], the EC50 in experiment [1] is 269 ± 45.3 nM; in experiment [2] it was 302 ± 72.9 nM.

(Values after publication PMC7108740, “Exploring the molecular structures that confer ligand selectivity for galanin type II and III receptors” (PLoS ONE, 2020).)
